Calls of active or inactive are those of the source. No cut-off for these calls is given here.
What was measured:
[1] = biological target: cGMP-inhibited 3',5'-cyclic phosphodiesterase 3A (Homo sapiens) (UniProt Q14432); test: Inhibition of human PDE3A at 10 uM by Eurofins kinase assay relative to control
[2] = Aqueous solubility of compound at pH 7.4; format: physicochemical
[3] = biological target: Cytochrome P450 2B6 (Homo sapiens, UniProt P20813); test: Inhibition of recombinant human CYP2B6 by Eurofins assay; format: ADME
Sequence of Cytochrome P450 2B6 (P20813 whole entry): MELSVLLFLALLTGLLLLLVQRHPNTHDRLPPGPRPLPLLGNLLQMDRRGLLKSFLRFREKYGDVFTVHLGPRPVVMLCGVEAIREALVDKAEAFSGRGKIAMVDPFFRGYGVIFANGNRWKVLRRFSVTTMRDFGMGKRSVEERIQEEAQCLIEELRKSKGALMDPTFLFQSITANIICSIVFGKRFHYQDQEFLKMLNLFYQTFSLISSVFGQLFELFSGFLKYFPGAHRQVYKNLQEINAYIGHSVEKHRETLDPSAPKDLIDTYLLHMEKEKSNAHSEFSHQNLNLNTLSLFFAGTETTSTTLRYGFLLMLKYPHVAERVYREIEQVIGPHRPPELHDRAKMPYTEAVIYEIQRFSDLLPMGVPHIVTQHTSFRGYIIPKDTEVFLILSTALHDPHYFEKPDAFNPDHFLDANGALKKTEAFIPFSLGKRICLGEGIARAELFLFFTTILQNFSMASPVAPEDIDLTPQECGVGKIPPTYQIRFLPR

[4] = species on record: Homo sapiens; test: Inhibition of human PDE6 at 10 uM by Eurofins kinase assay relative to control
[5] = species on record: Homo sapiens; test: Inhibition of human PDE4A1A at 10 uM by Eurofins kinase assay relative to control
[6] = system: HCT-8; test: Cytotoxicity against human HCT-8 cells assessed as reduction in cell numbers upto 50 uM incubated for 48 hrs by high-density microscopic celltiter aqueous assay; format: toxicity, cell-based; conditions: hct-8, 48 h
[7] = biological target: Cytochrome P450 1A2 (Homo sapiens, UniProt P05177); test: Inhibition of recombinant human CYP1A2 by Eurofins assay; format: ADME
[8] = biological target: Cytochrome P450 2D6 (Homo sapiens, UniProt P10635); test: Inhibition of recombinant human CYP2D6 by Eurofins assay; format: ADME
[9] = biological target: Cytochrome P450 2C8 (Homo sapiens, UniProt P10632); test: Inhibition of recombinant human CYP2C8 by Eurofins assay; format: ADME
Sequence of Cytochrome P450 2C8 (P10632 whole entry): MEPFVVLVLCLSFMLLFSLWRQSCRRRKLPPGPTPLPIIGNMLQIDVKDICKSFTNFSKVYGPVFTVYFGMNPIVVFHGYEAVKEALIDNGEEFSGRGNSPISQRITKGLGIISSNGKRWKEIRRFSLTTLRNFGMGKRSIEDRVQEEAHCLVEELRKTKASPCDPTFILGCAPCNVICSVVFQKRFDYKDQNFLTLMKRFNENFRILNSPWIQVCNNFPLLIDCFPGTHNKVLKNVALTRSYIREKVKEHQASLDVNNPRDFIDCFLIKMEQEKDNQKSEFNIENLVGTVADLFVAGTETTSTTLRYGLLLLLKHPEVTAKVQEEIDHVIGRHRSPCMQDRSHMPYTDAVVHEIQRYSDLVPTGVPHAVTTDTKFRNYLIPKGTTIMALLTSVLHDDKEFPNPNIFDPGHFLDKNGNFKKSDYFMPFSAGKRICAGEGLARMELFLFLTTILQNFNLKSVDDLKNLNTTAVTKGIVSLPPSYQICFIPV

[10] = biological target: 3',5'-cyclic-AMP phosphodiesterase 4B (Homo sapiens) (UniProt Q07343); test: Inhibition of human PDE4B1 at 10 uM by Eurofins kinase assay relative to control
[11] = biological target: Dual 3',5'-cyclic-AMP and -GMP phosphodiesterase 11A (Homo sapiens) (UniProt Q9HCR9); test: Inhibition of human PDE11A at 10 uM by Eurofins kinase assay relative to control
Sequence of Dual 3',5'-cyclic-AMP and -GMP phosphodiesterase 11A (Homo sapiens) (Q9HCR9 whole entry, looked up): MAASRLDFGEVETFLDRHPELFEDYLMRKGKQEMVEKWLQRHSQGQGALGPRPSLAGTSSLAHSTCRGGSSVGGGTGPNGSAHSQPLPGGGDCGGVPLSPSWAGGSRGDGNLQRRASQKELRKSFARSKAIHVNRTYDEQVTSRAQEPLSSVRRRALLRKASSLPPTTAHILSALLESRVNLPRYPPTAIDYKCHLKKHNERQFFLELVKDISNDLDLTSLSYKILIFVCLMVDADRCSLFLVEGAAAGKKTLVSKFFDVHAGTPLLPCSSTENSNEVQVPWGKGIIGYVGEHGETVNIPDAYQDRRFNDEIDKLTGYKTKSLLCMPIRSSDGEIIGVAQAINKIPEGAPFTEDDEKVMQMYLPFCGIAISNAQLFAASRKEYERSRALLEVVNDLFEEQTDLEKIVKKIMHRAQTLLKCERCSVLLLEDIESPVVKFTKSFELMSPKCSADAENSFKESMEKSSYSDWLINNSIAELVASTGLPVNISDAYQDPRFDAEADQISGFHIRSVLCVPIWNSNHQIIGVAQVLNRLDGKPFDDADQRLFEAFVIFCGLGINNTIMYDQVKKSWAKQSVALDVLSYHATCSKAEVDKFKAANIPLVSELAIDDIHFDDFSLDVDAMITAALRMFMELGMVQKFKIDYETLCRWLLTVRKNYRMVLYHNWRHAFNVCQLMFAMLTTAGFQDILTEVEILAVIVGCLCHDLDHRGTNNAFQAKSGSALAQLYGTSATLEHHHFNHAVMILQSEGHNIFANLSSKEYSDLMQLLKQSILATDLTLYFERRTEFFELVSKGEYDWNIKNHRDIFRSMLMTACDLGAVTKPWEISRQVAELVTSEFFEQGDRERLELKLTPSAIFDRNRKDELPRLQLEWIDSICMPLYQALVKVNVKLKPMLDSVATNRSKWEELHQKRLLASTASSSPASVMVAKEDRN

[12] = biological target: T1, 3',5'-cyclic-AMP phosphodiesterase 4D (Homo sapiens, UniProt Q08499); test: Inhibition of human PDE4D2 by Eurofins kinase assay; format: toxicity
T1 sequence (Q08499 whole entry): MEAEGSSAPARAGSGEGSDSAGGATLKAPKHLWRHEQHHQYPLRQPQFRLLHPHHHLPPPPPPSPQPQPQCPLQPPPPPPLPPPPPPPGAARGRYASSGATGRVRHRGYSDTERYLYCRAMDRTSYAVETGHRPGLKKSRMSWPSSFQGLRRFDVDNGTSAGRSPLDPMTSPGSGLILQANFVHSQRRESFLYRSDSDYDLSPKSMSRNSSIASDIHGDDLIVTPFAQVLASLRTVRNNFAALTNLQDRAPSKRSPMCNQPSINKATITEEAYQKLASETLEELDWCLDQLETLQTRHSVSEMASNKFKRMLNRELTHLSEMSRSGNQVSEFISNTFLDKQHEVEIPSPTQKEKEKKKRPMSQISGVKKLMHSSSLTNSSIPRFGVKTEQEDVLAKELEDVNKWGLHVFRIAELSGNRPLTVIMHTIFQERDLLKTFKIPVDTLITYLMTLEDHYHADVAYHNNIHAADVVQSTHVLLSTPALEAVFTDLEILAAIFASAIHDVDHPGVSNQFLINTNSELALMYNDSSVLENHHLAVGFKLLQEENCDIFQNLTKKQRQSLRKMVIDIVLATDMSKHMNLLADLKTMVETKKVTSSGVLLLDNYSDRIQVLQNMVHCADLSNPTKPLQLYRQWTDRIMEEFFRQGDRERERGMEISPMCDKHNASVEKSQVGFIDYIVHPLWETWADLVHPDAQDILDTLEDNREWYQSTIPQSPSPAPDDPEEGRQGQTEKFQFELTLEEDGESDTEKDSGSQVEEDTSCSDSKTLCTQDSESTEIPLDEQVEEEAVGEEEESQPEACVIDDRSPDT

[13] = biological target: PDE5 (Homo sapiens, UniProt O76074); test: Inhibition of human platelet PDE5 using [3H]cGMP as substrate at 10 uM by Eurofins kinase assay relative to control; format: toxicity; conditions: human platelet PDE5, probe [3H]cGMP
[14] = system: PDE6; test: Inhibition of bovine retina PDE6 using [3H]cGMP as substrate at 10 uM by Eurofins kinase assay relative to control; format: toxicity, Bos taurus; conditions: cattle, bovine retina PDE6, probe [3H]cGMP
[15] = system: Cryptosporidium parvum; test: Antiparasitic activity against Cryptosporidium parvum Iowa oocyst infected in NOD SCID gamma mouse model assessed as reduction in parasite fecal shedding at 50 mg/kg, po administered twice daily for 7 days starting from day 7 post infection and measured on day 21 by qPCR analysis; format: functional, organism-based; conditions: time 14.0 day
[16] = biological target: PDE4B1 (Homo sapiens, UniProt Q07343); test: Inhibition of recombinant human PDE4B1 extracted from Sf9 cells using [3H]cAMP as substrate at 10 uM by Eurofins kinase assay relative to control; format: toxicity, cell-free; conditions: probe [3H]cAMP
[17] = biological target: cGMP-inhibited 3',5'-cyclic phosphodiesterase 3B (Homo sapiens) (UniProt Q13370); test: Inhibition of human PDE3B at 10 uM by Eurofins kinase assay relative to control
[18] = biological target: cGMP-dependent 3',5'-cyclic phosphodiesterase (Homo sapiens) (UniProt O00408); test: Inhibition of human PDE2A1 at 10 uM by Eurofins kinase assay relative to control
[19] = biological target: Cytochrome P450 3A4 (Homo sapiens, UniProt P08684); test: Inhibition of recombinant human CYP3A4 by Eurofins assay; format: ADME
Sequence of Cytochrome P450 3A4 (P08684 whole entry): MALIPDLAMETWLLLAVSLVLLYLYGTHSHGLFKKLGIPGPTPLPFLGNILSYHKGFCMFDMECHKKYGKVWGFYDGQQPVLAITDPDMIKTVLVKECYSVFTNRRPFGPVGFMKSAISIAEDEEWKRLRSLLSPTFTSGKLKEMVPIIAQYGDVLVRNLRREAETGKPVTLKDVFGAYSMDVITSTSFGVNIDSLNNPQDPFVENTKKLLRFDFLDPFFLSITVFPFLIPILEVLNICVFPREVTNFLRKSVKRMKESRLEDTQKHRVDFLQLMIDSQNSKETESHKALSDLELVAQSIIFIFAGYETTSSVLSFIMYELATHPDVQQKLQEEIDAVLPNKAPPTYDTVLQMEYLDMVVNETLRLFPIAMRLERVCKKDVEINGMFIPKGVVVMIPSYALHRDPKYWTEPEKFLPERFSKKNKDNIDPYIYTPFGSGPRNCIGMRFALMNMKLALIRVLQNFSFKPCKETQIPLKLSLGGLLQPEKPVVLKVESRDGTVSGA

[20] = biological target: Voltage-gated inwardly rectifying potassium channel KCNH2 (Homo sapiens, UniProt Q12809); test: Inhibition of human ERG by Eurofins kinase assay; format: toxicity
[21] = biological target: T1, 3',5'-cyclic-AMP phosphodiesterase 4D; test: Inhibition of human PDE4D2 at 10 uM by Eurofins kinase assay relative to control
[22] = biological target: High affinity cAMP-specific and IBMX-insensitive 3',5'-cyclic phosphodiesterase 8A (Homo sapiens) (UniProt O60658); test: Inhibition of human PDE8A1 at 10 uM by Eurofins kinase assay relative to control
[23] = biological target: PDE11A (Homo sapiens, UniProt Q9HCR9); test: Inhibition of recombinant human PDE11A extracted from Sf9 cells using [3H]cAMP as substrate at 10 uM by Eurofins kinase assay relative to control; format: toxicity, cell-free; conditions: probe [3H]cAMP
Sequence of PDE11A (Q9HCR9 whole entry): as the sequence (Q9HCR9 whole entry, looked up) above

[24] = biological target: High affinity 3',5'-cyclic-AMP phosphodiesterase 7A (Homo sapiens) (UniProt Q13946); test: Inhibition of human PDE7A1 at 10 uM by Eurofins kinase assay relative to control
Sequence of High affinity 3',5'-cyclic-AMP phosphodiesterase 7A (Homo sapiens) (Q13946 whole entry): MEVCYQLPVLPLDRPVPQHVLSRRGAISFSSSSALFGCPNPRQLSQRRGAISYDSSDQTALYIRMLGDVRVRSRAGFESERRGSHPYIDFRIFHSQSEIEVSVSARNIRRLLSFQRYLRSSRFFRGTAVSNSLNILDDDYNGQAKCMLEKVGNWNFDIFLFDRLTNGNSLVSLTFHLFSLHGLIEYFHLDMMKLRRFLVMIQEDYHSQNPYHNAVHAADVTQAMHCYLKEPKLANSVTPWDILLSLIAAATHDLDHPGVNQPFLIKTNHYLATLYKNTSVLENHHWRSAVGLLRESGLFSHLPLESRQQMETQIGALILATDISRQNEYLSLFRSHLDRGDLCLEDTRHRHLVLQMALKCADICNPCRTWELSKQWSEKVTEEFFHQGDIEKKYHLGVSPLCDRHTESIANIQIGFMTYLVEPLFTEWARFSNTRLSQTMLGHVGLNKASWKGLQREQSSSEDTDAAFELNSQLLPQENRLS

[25] = species on record: Homo sapiens; test: Inhibition of human PDE1B at 10 uM by Eurofins kinase assay relative to control
[26] = biological target: cAMP and cAMP-inhibited cGMP 3',5'-cyclic phosphodiesterase 10A (Homo sapiens) (UniProt Q9Y233); test: Inhibition of human PDE10A2 at 10 uM by Eurofins kinase assay relative to control
Sequence of cAMP and cAMP-inhibited cGMP 3',5'-cyclic phosphodiesterase 10A (Homo sapiens) (Q9Y233 whole entry): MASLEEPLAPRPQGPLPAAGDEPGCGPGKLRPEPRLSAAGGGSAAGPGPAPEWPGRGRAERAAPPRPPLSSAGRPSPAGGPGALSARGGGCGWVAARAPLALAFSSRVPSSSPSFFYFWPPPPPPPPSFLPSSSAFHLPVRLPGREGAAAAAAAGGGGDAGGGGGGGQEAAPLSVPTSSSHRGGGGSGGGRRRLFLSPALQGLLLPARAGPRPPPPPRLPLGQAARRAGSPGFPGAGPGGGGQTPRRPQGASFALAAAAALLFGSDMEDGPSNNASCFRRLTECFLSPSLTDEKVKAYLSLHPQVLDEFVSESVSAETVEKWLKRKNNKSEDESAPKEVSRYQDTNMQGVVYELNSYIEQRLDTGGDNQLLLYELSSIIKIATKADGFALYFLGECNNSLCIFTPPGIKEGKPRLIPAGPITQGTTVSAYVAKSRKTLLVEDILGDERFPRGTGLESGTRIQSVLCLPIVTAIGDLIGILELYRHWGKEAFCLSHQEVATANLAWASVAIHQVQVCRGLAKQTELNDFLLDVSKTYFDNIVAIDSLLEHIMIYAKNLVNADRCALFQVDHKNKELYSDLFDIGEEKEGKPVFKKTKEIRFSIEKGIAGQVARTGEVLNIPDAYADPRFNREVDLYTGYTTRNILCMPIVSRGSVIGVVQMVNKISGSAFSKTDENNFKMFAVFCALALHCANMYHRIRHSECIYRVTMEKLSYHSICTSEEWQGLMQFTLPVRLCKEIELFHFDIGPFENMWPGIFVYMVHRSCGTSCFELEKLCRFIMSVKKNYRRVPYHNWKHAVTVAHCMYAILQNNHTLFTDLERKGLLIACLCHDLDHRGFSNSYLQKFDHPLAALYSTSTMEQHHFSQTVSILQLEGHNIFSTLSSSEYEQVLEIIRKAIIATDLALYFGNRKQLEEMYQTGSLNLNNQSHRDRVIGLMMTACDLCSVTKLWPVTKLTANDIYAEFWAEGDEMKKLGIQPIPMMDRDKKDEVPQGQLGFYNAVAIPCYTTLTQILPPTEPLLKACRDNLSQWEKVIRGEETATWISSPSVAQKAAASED

[27] = biological target: cGMP-specific 3',5'-cyclic phosphodiesterase (Homo sapiens) (UniProt O76074); test: Inhibition of human PDE5 at 10 uM by Eurofins kinase assay relative to control
[28] = Cytotoxicity against human HCT-8 cells assessed as inhibition of cell proliferation incubated for 48 hrs by Celltiter aqueous assay; format: toxicity, cell-based; conditions: read-out: TC50
[29] = biological target: Cytochrome P450 2C19 (Homo sapiens, UniProt P33261); test: Inhibition of recombinant human CYP2C19 by Eurofins assay; format: ADME

inhibition [1]: 27%
solubility [2]: > 200 µM
IC50 [3]: > 10 µM
inhibition [4]: 79%
inhibition [5]: 31%
IC50 [7]: > 10 µM
IC50 [8]: > 10 µM
IC50 [9]: > 10 µM
inhibition [10]: 54%
inhibition [11]: 55%
inhibition [17]: 2%
inhibition [18]: 36%
IC50 [19]: > 10 µM
inhibition [21]: 42%
inhibition [22]: 30%
inhibition [24]: 22%
inhibition [25]: 18%
inhibition [26]: 37%
inhibition [27]: 93%
IC50 [29]: > 10 µM
Structure (SMILES): CCc1nn(C)c2nc(-c3ccc(C(=O)O)cc3)nc(NCc3ccc(F)cc3)c12
Activity [6]: Non-toxic
IC50 [12]: 8.2 µM
inhibition at 10 µM [13]: > 50%
inhibition at 10 µM [14]: > 50%
Activity [15]: Active
inhibition at 10 µM [16]: > 50%
IC50 [20]: > 10 µM
inhibition at 10 µM [23]: > 50%
CC50 at 48 h [28]: > 100 µM

— ChEMBL document CHEMBL6087459 (J Med Chem, 2025)
